In ChEMBL document CHEMBL6121007, “Design, synthesis and evaluation of pyrimidine derivatives as sedative-hypnotic agents” (Eur J Med Chem, 2025):
The source made the active and inactive calls. No cut-off for these calls is given here.

Tests used:
[1] = test system: Mus musculus; experiment: Upregulation of ubiquitin mediated proteolysis related genes in hypothalamus of mouse at 2.5 mg/kg, ip measured after 30 mins by KEGG enrichment analysis relative to control; format: functional; conditions: 0.5 h
[2] = test system: Mus musculus; experiment: In vivo activation of cAMP/PKA/CREB signaling pathway in mouse assessed as increase in PKA expression in hypothalamus at 2.5 mg/kg, ip measured after 30 mins by Western blot analysis; format: functional, organism-based
[3] = Half life in male Sprague-Dawley rat at 0.5 mg/kg, iv measured after 2 to 720 mins by LC-MS/MS analysis; format: ADME, organism-based; conditions: in vivo, time 2-720 min
[4] = test system: Mus musculus; experiment: Upregulation of signaling pathways regulating pluripotent stem cells related genes in hypothalamus of mouse at 2.5 mg/kg, ip measured after 30 mins by KEGG enrichment analysis relative to control; format: functional; conditions: 0.5 h
[5] = test system: Mus musculus; experiment: Upregulation of threonine metabolism related genes in hypothalamus of mouse at 2.5 mg/kg, ip measured after 30 mins by KEGG enrichment analysis relative to control; format: functional; conditions: 0.5 h
[6] = test system: Mus musculus; experiment: Upregulation of serine metabolism related genes in hypothalamus of mouse at 2.5 mg/kg, ip measured after 30 mins by KEGG enrichment analysis relative to control; format: functional; conditions: 0.5 h
[7] = Upregulation of FoxO signaling pathway related genes in hypothalamus of mouse at 2.5 mg/kg, ip measured after 30 mins by KEGG enrichment analysis relative to control; format: functional; conditions: 0.5 h
[8] = Ratio of drug concentration in male mouse brain to plasma at 10 mg/kg, ip measured after 2 hrs by LC-MS/MS analysis; format: ADME, organism-based; conditions: brain and plasma, read-out: BPR
[9] = test system: Mus musculus; experiment: Sedative-hypnotic activity in mouse assessed as decrease in number of square crossing at 0.1 to 0.5 mg/kg, ip administrated as single dose and measured within 3 mins by open field test; format: functional, organism-based; conditions: dose 0.1-0.5 mg/kg
[10] = Upregulation of proteoglycans in cancer related genes in hypothalamus of mouse at 2.5 mg/kg, ip measured after 30 mins by KEGG enrichment analysis relative to control; format: functional; conditions: 0.5 h
[11] = Upregulation of herpes simplex virus 1 infection related genes in hypothalamus of mouse at 2.5 mg/kg, ip measured after 30 mins by KEGG enrichment analysis relative to control; format: functional; conditions: 0.5 h
[12] = test system: Mus musculus; experiment: Upregulation of parathyroid hormone secretion related genes in hypothalamus of mouse at 2.5 mg/kg, ip measured after 30 mins by KEGG enrichment analysis relative to control; format: functional; conditions: 0.5 h
[13] = Drug concentration in male mouse brain at 10 mg/kg, ip measured after 2 hrs by LC-MS/MS analysis; format: ADME, organism-based; conditions: read-out: Ct
[14] = test system: Mus musculus; experiment: Sedative-hypnotic activity in pentobarbital-induced mouse assessed as increase in sleep duration at 2.5 mg/kg, ip administrated as single dose; format: functional, organism-based
[15] = Half life in male Sprague-Dawley rat at 2.5 mg/kg, ip measured after 5 to 1440 mins by LC-MS/MS analysis; format: ADME, organism-based; conditions: in vivo, time 5-1440 min
[16] = Drug concentration in male mouse brain at 10 mg/kg, ip measured after 1 hrs by LC-MS/MS analysis; format: ADME, organism-based; conditions: read-out: Ct
[17] = test system: Mus musculus; experiment: Sedative-hypnotic activity in mouse assessed as decrease in number of square crossing at 2.5 mg/kg, ip administrated as single dose and measured within 3 mins by open field test; format: functional, organism-based
[18] = Upregulation of human papillomavirus infection related genes in hypothalamus of mouse at 2.5 mg/kg, ip measured after 30 mins by KEGG enrichment analysis relative to control; format: functional; conditions: 0.5 h
[19] = test system: Mus musculus; experiment: Sedative-hypnotic activity in pentobarbital-induced mouse assessed as asleep rate at 0.5 to 2.5 mg/kg, ip preadministered with compound for 20 mins followed by pentobarbital administration and measured within 15 mins (reference value: 12.5 %); format: functional; conditions: dose 0.5-2.5 mg/kg, time <= 35 min
[20] = Upregulation of cushing syndrome related genes in hypothalamus of mouse at 2.5 mg/kg, ip measured after 30 mins by KEGG enrichment analysis relative to control; format: functional; conditions: 0.5 h
[21] = test system: Mus musculus; experiment: Upregulation of parathyroid hormone action related genes in hypothalamus of mouse at 2.5 mg/kg, ip measured after 30 mins by KEGG enrichment analysis relative to control; format: functional; conditions: 0.5 h
[22] = AUC (0 to infinity) in male Sprague-Dawley rat at 0.5 mg/kg, iv measured after 2 to 720 mins by LC-MS/MS analysis; format: ADME, organism-based; conditions: in vivo, time 2-720 min
[23] = test system: Mus musculus; experiment: In vivo activation of cAMP/PKA/CREB signaling pathway in mouse assessed as increase in CREB phosphorylation in hypothalamus at 2.5 mg/kg, ip measured after 30 mins by Western blot analysis; format: functional, organism-based
[24] = test system: Mus musculus; experiment: Sedative-hypnotic activity in pentobarbital-induced mouse assessed as decrease in sleep latency at 0.2 to 5 mg/kg, ip; format: functional, organism-based; conditions: dose 0.2-5 mg/kg
[25] = Cmax in male Sprague-Dawley rat at 2.5 mg/kg, ip measured after 5 to 1440 mins by LC-MS/MS analysis; format: ADME, organism-based; conditions: in vivo, time 5-1440 min
[26] = Upregulation of cytokine-cytokine receptor interaction related genes in hypothalamus of mouse at 2.5 mg/kg, ip measured after 30 mins by KEGG enrichment analysis relative to control; format: functional; conditions: 0.5 h
[27] = test system: Mus musculus; experiment: In vivo activation of cAMP/PKA/CREB signaling pathway in mouse assessed as increase in cAMP level in hypothalamus at 2.5 mg/kg, ip measured after 30 mins by ELISA analysis; format: functional, organism-based
[28] = test system: Mus musculus; experiment: Upregulation of linoleic acid metabolism related genes in hypothalamus of mouse at 2.5 mg/kg, ip measured after 30 mins by KEGG enrichment analysis relative to control; format: functional; conditions: 0.5 h
[29] = test system: Mus musculus; experiment: Upregulation of neurodegeneration-multiple diseases pathways related genes in hypothalamus of mouse at 2.5 mg/kg, ip measured after 30 mins by KEGG enrichment analysis relative to control; format: functional; conditions: 0.5 h
[30] = Upregulation of Ras signaling pathway related genes in hypothalamus of mouse at 2.5 mg/kg, ip measured after 30 mins by KEGG enrichment analysis relative to control; format: functional; conditions: 0.5 h
[31] = Upregulation of focal adhesion related genes in hypothalamus of mouse at 2.5 mg/kg, ip measured after 30 mins by KEGG enrichment analysis relative to control; format: functional; conditions: 0.5 h
[32] = Tmax in male Sprague-Dawley rat at 0.5 mg/kg, iv measured after 2 to 720 mins by LC-MS/MS analysis; format: ADME, organism-based; conditions: in vivo, time 2-720 min
[33] = test system: Mus musculus; experiment: Sedative-hypnotic activity in mouse assessed as decrease in number of square crossing at 50 mg/kg, ip administrated as single dose and measured after 30 mins by open field test; format: functional, organism-based
[34] = Upregulation of human T-cell leukemia virus 1 infection related genes in hypothalamus of mouse at 2.5 mg/kg, ip measured after 30 mins by KEGG enrichment analysis relative to control; format: functional; conditions: 0.5 h
[35] = test system: Mus musculus; experiment: Sedative-hypnotic activity in mouse assessed as reduction in grip strength score at 50 mg/kg, ip administrated as single dose and measured after 30 mins by grip strength test; format: functional, organism-based
[36] = test system: Mus musculus; experiment: Upregulation of oxytocin signaling pathway related genes in hypothalamus of mouse at 2.5 mg/kg, ip measured after 30 mins by KEGG enrichment analysis relative to control; format: functional; conditions: 0.5 h
[37] = Bioavailability in male Sprague-Dawley rat at 2.5 mg/kg, ip measured after 5 to 1440 mins by LC-MS/MS analysis; format: ADME, organism-based; conditions: in vivo, time 5-1440 min

## CCn1c2ccccc2c2cc(Nc3ccnc(Nc4ccc(C)c(OC)c4)n3)ccc21
[1]
  Activity: 1.73%
[2]
  Activity: Active
[3]
  half-life: 3.54 h
[4]
  Activity: 2.89%
[5]
  Activity: 1.73%
[6]
  Activity: 1.73%
[7]
  Activity: 4.62%
[8]
  Kp at 2 h: 0.38
[9]
  Activity: Active; No Significant Difference Compared With Control Mouse
[10]
  Activity: 5.2%
[11]
  Activity: 5.78%
[12]
  Activity: 4.05%
[13]
  concentration at 2 h: 23 ng/mL
[14]
  Activity: Active
[15]
  half-life: 4.56 h
[16]
  concentration at 1 h: 15 ng/mL
[17]
  Activity: Active
[18]
  Activity: 6.36%
[19]
  Activity: 100%
[20]
  Activity: 4.05%
[21]
  Activity: 4.05%
[22]
  AUC(0-inf): 885 ng·h/mL
[23]
  Activity: Active
[24]
  Activity: Active
[25]
  Cmax: 281 ng/mL
[26]
  Activity: 8.09%
[27]
  Activity: Active
[28]
  Activity: 1.73%
[29]
  Activity: 5.78%
[30]
  Activity: 3.47%
[31]
  Activity: 2.89%
[32]
  Tmax: 1.8 min
[33]
  Activity: Active
[34]
  Activity: 4.62%
[35]
  Activity: Active
[36]
  Activity: 5.2%
[37]
  bioavailability: 74.5%
